In test [1] the target is dephosphorylated FGFR2 (Homo sapiens (Human), UniProt P21802). Description: FGFR Enzyme Binding Assay (HTRF tracer displacement), FGFR2. The note with it: 5 nM dephosphorylated FGFR2, 60 minute incubation at 22° C.; read-out: FGFR2 Enz Binding IC50. As for the experimental part: The potency of compounds inhibiting human isoforms of FGFR kinase was determined using Life Technologies' Homogeneous Time Resolved Fluorescence (HTRF)-based binding assay technology. An incubation was conducted with either 5 nM dephosphorylated FGFR1 (Array Biopharma, p1702; SEQ ID NO: 1, amino acids 458 to 765, dephosphorylated by co-expression with PTP1b (protein tyrosine phosphatase 1B)), 5 nM dephosphorylated FGFR2 (Life Technologies, Cat. No. PV4106 that had been dephosphorylated with Lambda protein phosphatase (New England Biolabs, cat #P0753)) or 5 nM phosphorylated FGFR3 (Array Biopharma, p1836; SEQ ID NO: 5, amino acids 449 to 759), 50 nM Kinase Tracer 236 (Life Technologies Cat. No. PR9078A), 2 nM Biotin-anti-6HIS (Life Technologies Cat. No. PV6090) and 2 nM Europium-Streptavidin (Life Technologies Cat. No. PV6025) along with test compound in a buffer consisting of 50 mM HEPES ((4-(2-hydroxyethyl)-1-piperazineethanesulfonic acid, pH 7.5), 5 mM MgCl2, 0.005% Triton X-100, 1 mM DTT, 1 mM NaVO4 and 2% DMSO in a final volume of 12 μL Compounds were typically prepared as a 3-fold or 4-fold serial dilution in DMSO and added to the assay to give the appropriate final concentration. After a 60 minute incubation at 22° C., the extent of tracer displacement was determined using a PerkinElmer EnVision multimode plate reader via HTRF dual wavelength detection, and the percent of control (POC) was calculated using a ratiometric emission factor. One hundred POC was determined using no test compound, and 0 POC was determined in the presence of 1 μM of an appropriate control inhibitor. A 4-parameter logistic curve was fit to the POC values as a function of the concentration of compound, and the IC50 value was the point where the best-fit curve crossed 50 POC.
dephosphorylated FGFR2, sequence (P21802 22-821): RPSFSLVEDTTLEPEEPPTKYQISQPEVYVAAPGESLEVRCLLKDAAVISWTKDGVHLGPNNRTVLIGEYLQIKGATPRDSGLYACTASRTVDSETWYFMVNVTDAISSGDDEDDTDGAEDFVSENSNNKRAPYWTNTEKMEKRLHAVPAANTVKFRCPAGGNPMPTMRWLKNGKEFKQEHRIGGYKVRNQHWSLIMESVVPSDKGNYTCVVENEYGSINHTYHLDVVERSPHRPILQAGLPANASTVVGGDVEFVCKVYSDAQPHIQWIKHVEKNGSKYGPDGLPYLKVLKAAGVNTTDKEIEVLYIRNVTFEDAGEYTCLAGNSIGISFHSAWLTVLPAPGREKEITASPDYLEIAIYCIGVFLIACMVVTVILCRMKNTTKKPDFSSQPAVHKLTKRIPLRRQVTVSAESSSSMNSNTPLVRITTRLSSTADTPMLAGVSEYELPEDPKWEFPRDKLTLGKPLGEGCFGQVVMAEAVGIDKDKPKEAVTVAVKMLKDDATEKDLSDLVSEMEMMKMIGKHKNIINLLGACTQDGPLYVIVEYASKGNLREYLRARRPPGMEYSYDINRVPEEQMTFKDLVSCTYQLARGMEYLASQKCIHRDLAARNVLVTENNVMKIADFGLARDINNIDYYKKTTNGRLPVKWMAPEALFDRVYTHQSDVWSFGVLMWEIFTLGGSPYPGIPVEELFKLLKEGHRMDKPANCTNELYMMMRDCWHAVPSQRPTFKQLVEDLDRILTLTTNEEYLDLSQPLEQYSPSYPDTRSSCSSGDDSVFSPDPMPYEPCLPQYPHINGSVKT
For orientation: TR-FRET usually uses a lanthanide donor and a delayed reading to cut background.

Test [2] addresses human wild type FGFR2 (Homo sapiens (Human), UniProt P21802). Description: FGFR2 pFGFR Cell Assay. Format: cell-based. The note with it: HEK-293 cells, 1 hour compound, 30 ng/ml human FGF-acidic, ELISA. The procedure: HEK-293 cells transfected with dox-inducible human wild type FGFR2 (SEQ ID NO: 3) were plated in a collagen or poly-D-lysine coated 96 well flat bottom plates at 4×10^5 cells/well in complete DMEM medium containing 10% FBS and 1 μg/ml doxycycline and allowed to attach for 24 h at 37° C., 5% CO2. Cells were treated with compound using 1:3 serial dilutions with a maximum final concentration of 5 μM. Compound was incubated on cells for 1 hour at 37° C., 5% CO2. Cells were then stimulated with a final concentration of 30 ng/ml human FGF-acidic (R&D Systems Cat number 232-FA/CF) for 5 minutes at 37° C., 5% CO2. Medium was removed and cells were lysed with lysis buffer containing phosphatase and protease inhibitors. Phospho FGFR2 was measured by ELISA (R&D Systems cat. no. DYC684). The ELISA captures total FGFR2 and detects total phospho tyrosine. Optical density was measured for each well using a Versamax reader at a wavelength of 450 nm. 100 POC was determined using no test compounds and 0 POC was determined using a control compound. The POC values were fit to a 4-parameter logistic curve as a function of the concentration of the compound, and the IC50 value is the point where the curve crosses 50 POC.
On the technique in general: An ELISA detects its analyte on a solid surface through an enzyme-linked reagent.

SMILES strings stand for the structures.

The IC50 is the concentration at which inhibition is half-maximal.

human wild type FGFR2, sequence (P21802 22-821): as above

As for `COc1cc(Nc2ccc3ncc(-c4c(C)nn(C5CCN(C(=O)C6(F)CN(C(=O)/C=C/CN(C)C)C6)CC5)c4C)nc3c2)cc(OC)c1` [Example 23, (E)-1-(3-(4-(4-(7-((3,5-dimethoxyphenyl)amino)-quinoxalin-2-yl)-3,5-dimethyl-1H-pyrazol-1-yl)piperidine-1-carbonyl)-3-fluoroazetidin-1-yl)-4-(dimethylamino)but-2-en-1-one], the IC50 in test [1] came out at 38 nM. Regarding `C=CC(=O)N1CC(O)(C(=O)N2CCC(n3cc(-c4cnc5ccc(N(C)c6cc(OC)cc(OC)c6)cc5n4)cn3)CC2)C1` [Example 27, 1-(3-(4-(4-(7-((3,5-dimethoxyphenyl)(methyl)amino)quinoxalin-2-yl)-1H-pyrazol-1-yl)piperidine-1-carbonyl)-3-hydroxyazetidin-1-yl)prop-2-en-1-one], the IC50 in test [1] is 3 nM; in test [2], 37 nM. Taken in the same sequence, the figures for `COc1cc(Nc2ccc3ncc(-c4cnn(C5CCN(C(=O)C6(F)CN(C(=O)/C=C/CN(C)C)C6)CC5)c4)nc3c2)cc(OC)c1` [Example 10, (E)-1-(3-(4-(4-(7-((3,5-dimethoxyphenyl)amino)-quinoxalin-2-yl)-1H-pyrazol-1-yl)piperidine-1-carbonyl)-3-fluoro-azetidin-1-yl)-4-(dimethylamino)but-2-en-1-one] were 6 nM and 28 nM. On to `COc1cc(Nc2ccc3ncc(-c4cnc(N5CCN(C(=O)C6(F)CN(C(=O)/C=C/CN(C)C)C6)CC5)cc4C)nc3c2)cc(OC)c1` [Example 14, (E)-1-(3-(4-(5-(7-((3,5-dimethoxyphenyl)amino)-quinoxalin-2-yl)-4-methylpyridin-2-yl)-piperazine-1-carbonyl)-3-fluoroazetidin-1-yl)-4-(dimethylamino)but-2-en-1-one], for which the IC50 in test [1] is 290 nM. For `COc1cc(Nc2ccc3ncc(-c4cnn(C5CCN(C(=O)C6(F)CN(C(=O)/C=C/CN(C)C)C6)CC5)c4C)nc3c2)cc(OC)c1` [Example 17, (E)-1-(3-(4-(4-(7-((3,5-dimethoxyphenyl)amino)-quinoxalin-2-yl)-5-methyl-1H-pyrazol-1-yl)piperi-dine-1-carbonyl)-3-fluoroazetidin-1-yl)-4-(dimethylamino)but-2-en-1-one], the IC50 in test [2] was determined as 170 nM. In the case of `C=CC(=O)N1CC(C(=O)N2CCN(c3cccc(-c4cnc5ccc(Nc6cc(OC)cc(OC)c6)cc5n4)c3)CC2)C1` [Example 25, 1-(3-(4-(3-(7-((3,5-dimethoxyphenyl)amino)-quinoxalin-2-yl)phenyl)-piperazine-1-carbonyl)-azetidin-1-yl)prop-2-en-1-one], in test [1], the IC50 stood at 157 nM. In turn, `C=CC(=O)N1CC(C(=O)N2CCN(c3ccc(-c4cnc5ccc(Nc6cc(OC)cc(OC)c6)cc5n4)cn3)CC2)C1` [Example 5, 1-(3-(4-(5-(7-((3,5-dimethoxyphenyl)amino)-quinoxalin-2-yl)pyridin-2-yl)piperazine-1-carbonyl)azetidin-1-yl)-prop-2-en-1-one] registered an IC50 in test [2] of 486 nM. On to `C=CC(=O)N1CC(O)(C(=O)N2CCC(n3cc(-c4cnc5ccc(Nc6cc(OC)cc(OC)c6)cc5n4)cn3)CC2)C1` [Example 26, 1-(3-(4-(4-(7-((3,5-dimethoxyphenyl)amino)quinoxalin-2-yl)-1H-pyrazol-1-yl)piperidine-1-carbonyl)-3-hydroxyazetidin-1-yl)prop-2-en-1-one], for which the IC50 in test [1] was found to be 5 nM. Same read-out and setting: as for `COc1cc(Nc2ccc3ncc(-c4ccc(N5CCN(C(=O)C6CN(C(=O)/C=C/CN(C)C)C6)CC5)nc4)nc3c2)cc(OC)c1` [Example 6, (E)-1-(3-(4-(5-(7-((3,5-dimethoxyphenyl)amino)-quinoxalin-2-yl)pyridin-2-yl)piperazine-1-carbonyl)azetidin-1-yl)-4-(dimethylamino)but-2-en-1-one], the figure is 14 nM.

Source of the values: patent publication US12351571B2, “Substituted quinoxaline compounds as inhibitors of FGFR tyrosine kinases” (ARRAY BIOPHARMA INC., priority 2018, dated 2025).
